Experiments:
[1] = target: T1, EP2 (Homo sapiens, UniProt P43116); experiment: EP2 cAMP functional assay; type: cell-based
[2] = target: T1, EP2; experiment: EP2 binding assay (Ki)
[3] = target: T2, EP4 (Homo sapiens, UniProt P35408); experiment: EP4 cAMP functional assay; type: cell-based
[4] = target: T2, EP4; experiment: EP4 binding assay (Ki)
[5] = test system: incisional wounds; experiment: Incisional skin wound model and assessment; type: in vivo, Sprague-Dawley rats; conditions: rats, Day 7, topical 0.004% twice daily for 5 days, drug-treated, scale of 0 to 6, higher = severer scar
Source text: Sprague-Dawley rats at 180-200 gram were anesthetized with isoflourane. After shaving, 2-cm long incisions were made on the left and right side of the back, reaching the deep fascia on the back skin of rats under sterile conditions. Incisional wounds were immediately closed with 4.0 sutures, and then topically treated with a vehicle or test drugs at 0.004% twice daily for 5 days. The vehicle used here contains ethanol 30%, propylene glycol 12%, dipropylene glycol 5%, benzyl alcohol 5%, glycerol 3% and normal saline 45%. Wounds were photographed on day 7. All photos were coded and scored by lay people. Evaluation of wound sites was based on scar width, palpability (elevation) of wound areas, and general progress in healing, using a scale of 0 to 6; the severer a scar, the higher the score. Each scar was divided into 4 regions, separated by suture sites; each quarter was scored independently; the mean of the 4 part scores was recorded as the overall scar score of each incision site.

T2 sequence (P35408 whole entry): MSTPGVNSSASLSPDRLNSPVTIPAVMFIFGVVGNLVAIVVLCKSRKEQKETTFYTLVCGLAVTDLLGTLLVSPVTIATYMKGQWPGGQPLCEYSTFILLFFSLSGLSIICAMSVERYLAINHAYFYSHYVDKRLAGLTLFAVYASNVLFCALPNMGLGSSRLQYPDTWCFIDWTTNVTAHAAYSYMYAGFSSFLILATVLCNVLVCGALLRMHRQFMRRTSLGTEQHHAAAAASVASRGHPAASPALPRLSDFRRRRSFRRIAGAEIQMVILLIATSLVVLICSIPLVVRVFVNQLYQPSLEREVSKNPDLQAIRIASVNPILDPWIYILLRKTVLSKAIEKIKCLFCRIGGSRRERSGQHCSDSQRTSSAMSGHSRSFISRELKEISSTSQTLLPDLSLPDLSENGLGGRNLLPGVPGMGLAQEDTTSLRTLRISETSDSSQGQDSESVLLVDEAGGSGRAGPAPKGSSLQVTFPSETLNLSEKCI
T1 sequence (P43116 whole entry): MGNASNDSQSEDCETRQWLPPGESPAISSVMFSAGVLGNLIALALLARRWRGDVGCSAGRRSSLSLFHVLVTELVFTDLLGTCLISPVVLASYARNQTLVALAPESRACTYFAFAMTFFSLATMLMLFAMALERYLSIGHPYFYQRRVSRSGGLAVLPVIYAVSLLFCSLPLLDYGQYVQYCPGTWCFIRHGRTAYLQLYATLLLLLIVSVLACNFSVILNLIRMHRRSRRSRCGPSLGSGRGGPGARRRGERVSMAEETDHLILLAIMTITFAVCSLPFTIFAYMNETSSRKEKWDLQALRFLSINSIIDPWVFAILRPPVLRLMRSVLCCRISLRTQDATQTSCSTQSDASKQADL

Structure (SMILES)	EC50 [1]	IC50 [2]	EC50 [3]	IC50 [4]	Scar Scores [5]
CC1(C)C(=O)[C@H](C/C=C\CCCC(=O)O)[C@@H](/C=C/[C@H](O)CCc2sc3ccccc3c2Cl)[C@@H]1O [Compound 2]	> 10000 nM		0.3 nM	7 nM	0.60 ± 0.1
O=C(O)c1ccc(CCCN2C(=O)CC[C@@H]2CC[C@@H](O)Cc2cccc(C(F)(F)F)c2)s1 [Compound 4]	71 nM	4650 nM			0.76 ± 0.07
O=C(O)c1ccc(CC2Sc3c(Cl)cccc3N(Cc3ccccc3C(F)(F)F)C2=O)cc1 (stereo not drawn) [Compound 5]	1.9 nM	1 nM	4 nM	0.3 nM	0.56 ± 0.07

Further lines, with some results ahead:

EC50 [1]	IC50 [2]	EC50 [3]	IC50 [4]	Structure (SMILES)	Scar Scores [5]
> 10000 nM	> 10000 nM	0.9 nM	81 nM	O=C(O)CCCCCC[C@H]1C(=S)CCC[C@@H]1CCC(O)Cc1ccccc1 (stereo partly drawn) [Compound 1]	
	21 nM	> 10000 nM		CCCCC[C@H](O)c1ccc(N2C(=O)CC[C@@H]2CCCc2ccc(C(=O)O)s2)cc1 [Compound 3]	

From patent US20170143733A1, “COMPOUNDS AND METHODS FOR SKIN REPAIR” (Allergan, Inc., priority 2012, published 2017)
